The results in this text go back to ChEMBL document CHEMBL4706534, “1,2,3-Triazole-containing hybrids with potential antibacterial activity against methicillin-resistant Staphylococcus aureus (MRSA)” (Eur J Med Chem, 2020).

Converted amounts (≈) assume the structure as drawn. A value given as a limit tells only on which side of the number the result lay.

What all share (format): functional
In assay [1] the test system is Staphylococcus aureus. Nature of the assay: Resistance index, ratio of MIC for antibacterial activity against methicillin-resistant Staphylococcus aureus […] to MIC for antibacterial activity against methicillin-sensitive Staphylococcus aureus.
Assay [2] has as its system Staphylococcus aureus. Nature of the assay: Antibacterial activity against Staphylococcus aureus ATCC 25923 by CLSI-based broth microdilution method.
In assay [3] the test system is Staphylococcus aureus. Nature of the assay: Antibacterial activity against Methicillin-resistant Staphylococcus aureus KU60.
Assay [4] deals with Enterococcus. Nature of the assay: Antibacterial activity against Vancomycin-resistant enterococcus 1 incubated for 16 hrs by agar dilution method. For orientation: Agar dilution tests growth on a series of plates holding different concentrations.
Assay [5] concerns Enterococcus. The experiment in a line: Antibacterial activity against Vancomycin-resistant enterococcus 2 incubated for 16 hrs by agar dilution method.
Assay [6] has as its system Staphylococcus aureus. The experiment in a line: Resistance index, ratio of MIC for antibacterial activity against Staphylococcus aureus ATCC 43300 incubated for 18 hrs to MIC for antibacterial activity against Staphylococcus aureus ATCC 25923 incubated for 18 hrs.
Assay [7] relates to Staphylococcus aureus. Nature of the assay: Antibacterial activity against methicillin-resistant Staphylococcus aureus ATCC 43300 incubated for 18 hrs.
Assay [8] deals with Staphylococcus aureus. Nature of the assay: Antibacterial activity against Methicillin-resistant Staphylococcus aureus 2 incubated for 16 hrs by agar dilution method.
Assay [9] deals with Staphylococcus aureus. The experiment in a line: Antibacterial activity against Methicillin-resistant Staphylococcus aureus 1 incubated for 16 hrs by agar dilution method.
Assay [10] deals with Staphylococcus aureus. Nature of the assay: Antibacterial activity against Methicillin-resistant Staphylococcus aureus USA200 by CLSI-based microdilution method. Background: Broth dilution looks for growth in wells or tubes with falling amounts of substance.
Assay [11] relates to Staphylococcus aureus. Nature of the assay: Antibacterial activity against wild type Methicillin-resistant Staphylococcus aureus by CLSI-based microdilution method.
Assay [12] deals with Staphylococcus aureus. The experiment in a line: Antibacterial activity against Methicillin-resistant Staphylococcus aureus USA600 by CLSI-based microdilution method.
Assay [13] has as its system Staphylococcus aureus. Nature of the assay: Antibacterial activity against Methicillin-resistant Staphylococcus aureus USA100 by CLSI-based microdilution method.
The test system of assay [14] is Staphylococcus aureus. Nature of the assay: Antibacterial activity against Methicillin-resistant Staphylococcus aureus USA300 by CLSI-based microdilution method.
The test system of assay [15] is Staphylococcus aureus. Nature of the assay: Antibacterial activity against Methicillin-resistant Staphylococcus aureus incubated for 24 hrs by broth microdilution method.
The test system of assay [16] is Staphylococcus aureus. The experiment in a line: Antibacterial activity against methicillin-susceptible Staphylococcus aureus ATCC 25923 incubated for 18 hrs.
Assay [17] concerns Staphylococcus aureus. The experiment in a line: Antibacterial activity against methicillin-resistant Staphylococcus aureus ATCC 33591 incubated for 18 hrs.
Assay [18] has as its system Staphylococcus aureus. Nature of the assay: Potency index, ratio of linezolid MIC to compound MIC for antibacterial activity against methicillin-resistant Staphylococcus aureus ATCC 33591.

`CC(C)NC(=N)c1ccc2[nH]c(-c3ccc(OCc4cn(CSc5ccccc5)nn4)cc3)nc2c1`: the Ratio in the assay on Staphylococcus aureus [1] is reported as 0.125. The compound further showed an MIC in the assay on Staphylococcus aureus [2] of 8 mg/L (≈ 16.1 µM).

In the assay with Staphylococcus aureus [3], `O=C(c1ccccc1)N1CCN(c2ccc(N3C[C@H](Cn4ccnn4)OC3=O)cc2F)CC1` displayed an MIC of 0.25 mg/L (≈ 0.555 µM).

`CC(C)C[C@@H](N)C(=O)N[C@H]1C(=O)N[C@@H](CC(N)=O)C(=O)N[C@H]2C(=O)N[C@H]3C(=O)N[C@H](C(=O)N[C@H](C(=O)O)c4cc(O)cc(O)c4-c4cc3ccc4O)[C@H](O)c3ccc(c(Cl)c3)Oc3cc2cc(c3O[C@@H]2O[C@H](CO)[C@@H](O)[C@H](O)[C@H]2O[C@H]2C[C@](C)(N)[C@H](O)[C@H](C)O2)Oc2ccc(cc2Cl)[C@H]1O`: the MIC in the assay with Enterococcus [4] and in the assay with Enterococcus [5] was greater than 50 mg/L throughout.

With `NC[C@H]1O[C@@H](O[C@@H](Cn2cc(CCCCCCCCCCOc3ccc(C(=O)c4ccccc4)cc3)nn2)[C@H]2O[C@@H](n3ccc(=O)[nH]c3=O)[C@H](O)[C@@H]2O)[C@H](O)[C@@H]1O.O=C(O)C(F)(F)F`, the Ratio with Staphylococcus aureus [6] is 1. In addition, 8 mg/L was the least that counted as inhibitory against Staphylococcus aureus [7] (MIC).

Take `O=C(C(Cl)Cl)N1CCN(c2ccc(N3C[C@H](Cn4ccnn4)OC3=O)cc2F)CC1`: the MIC against Staphylococcus aureus [3] is 0.25 mg/L (≈ 0.547 µM).

With `CC(C)C[C@H](C(=O)N[C@@H]1Cc2ccc(c(Cl)c2)Oc2cc3cc(c2O[C@@H]2O[C@H](CO)[C@@H](O)[C@H](O)[C@H]2O[C@H]2C[C@](C)(NCCCCCCCc4ccccc4)[C@H](O)[C@H](C)O2)Oc2ccc(cc2Cl)[C@@H](O)[C@@H]2NC(=O)[C@H](NC(=O)[C@@H]3NC(=O)[C@H](CC(=O)O)NC1=O)c1ccc(O)c(c1)-c1c(O)cc(O)cc1[C@H](C(=O)O)NC2=O)n1cc(COCCCCCCOCc2cn([C@H](CC(C)C)C(=O)N[C@@H]3Cc4ccc(c(Cl)c4)Oc4cc5cc(c4O[C@@H]4O[C@H](CO)[C@@H](O)[C@H](O)[C@H]4O[C@H]4C[C@](C)(NCCCCCCCc6ccccc6)[C@H](O)[C@H](C)O4)Oc4ccc(cc4Cl)[C@@H](O)[C@@H]4NC(=O)[C@H](NC(=O)[C@@H]5NC(=O)[C@H](CC(=O)O)NC3=O)c3ccc(O)c(c3)-c3c(O)cc(O)cc3[C@H](C(=O)O)NC4=O)nn2)nn1`, the minimal inhibitory concentration (MIC) in the assay with Staphylococcus aureus [8] came to 12.5 mg/L (≈ 3.64 µM); against Enterococcus [4], 25 mg/L (≈ 7.28 µM); with Staphylococcus aureus [9], 12.5 mg/L (≈ 3.64 µM); against Enterococcus [5], 12.5 mg/L (≈ 3.64 µM).

For the compound `CC(C)NC(=N)c1ccc2[nH]c(-c3ccc(OCc4cn(-c5ccccc5)nn4)cc3)nc2c1`, in the assay on Staphylococcus aureus [1], the Ratio came out at 0.125. Besides, in the assay on Staphylococcus aureus [2], the MIC came to 8 mg/L (≈ 17.7 µM).

`NC[C@@H]1O[C@H](O[C@H]2[C@@H](O)[C@H](O[C@@H]3[C@@H](O)[C@H](N)C[C@H](N)[C@H]3O[C@H]3O[C@H](CN)[C@@H](O)[C@H](O)[C@H]3N)O[C@@H]2CO)[C@H](N)[C@@H](O)[C@@H]1O` [FRAMYCETIN]: the minimal inhibitory concentration (MIC) in the assay on Staphylococcus aureus [10], with Staphylococcus aureus [11], against Staphylococcus aureus [12], against Staphylococcus aureus [13] and in the assay on Staphylococcus aureus [14] was greater than 50 mg/L throughout.

Compound `CC(C)(C)C(=O)N1CCN(c2ccc(N3C[C@H](Cn4ccnn4)OC3=O)cc2F)CC1` came in with an MIC in the assay on Staphylococcus aureus [3] of 0.25 mg/L (≈ 0.581 µM).

In turn, `Cc1ccc(-n2cc(Cn3c4ccccc4c(=O)c4cc(C)ccc43)nn2)cc1` yielded an MIC against Staphylococcus aureus [15] of 19.6 mg/L (≈ 51.5 µM).

Compound `O=C(N[C@H](CO)[C@H](O)c1ccc([N+](=O)[O-])cc1)C(Cl)Cl` [CHLORAMPHENICOL] registered an MIC in the assay with Staphylococcus aureus [15] of 11.6 mg/L (≈ 35.9 µM).

Consider `CC(=O)NC[C@H]1CN(c2ccc(-n3cc(-c4ncccn4)nn3)c(F)c2)C(=O)O1`, for which the MIC was determined as 2 mg/L (≈ 5.03 µM) against Staphylococcus aureus [16] and 0.5 mg/L (≈ 1.26 µM) against Staphylococcus aureus [17]. In the assay with Staphylococcus aureus [18], the Ratio is recorded as 4.

Broadly, the MIC is the lowest concentration found to suppress growth. A higher MIC goes with a less susceptible organism.
